Experimental data: patent US20250215006A1, “TRICYCLIC COMPOUNDS AS INHIBITORS OF WRN” (Incyte Corporation, priority 2023, published 2025)

How the values were obtained:
WRN [1] = molecular target: T1, WRN (Homo sapiens, UniProt Q14191); test: WRN ATPase activity assay (ADP-Glo); assay type: biochemical; details: 1-hr pre-incubation with enzyme; 100 μM ATP, 25 nM forked dsDNA, 1 nM WRN; geometric mean of at least 2 replicates
T1 construct: A His-tagged construct of WRN (AA S2-S1235) was produced and used for the ATPase assay; His; made in house; host or cells: Sf9 insect cells (baculovirus, pFastBac1)
Protocol: Compounds of the Examples were tested for WRN ATPase activity. WRN ATPase activity catalyzes ATP hydrolysis to produce ADP and phosphate. DNA encoding the target protein, 6×HIS-TEV-WRN-517-945, was produced, cloned and transfected as detailed in Example D. The amount of ADP produced was measured using ADP-Glo™ Kinase Assay kit from Promega Corporation in a Greiner white regular volume 384 wells assay plate (Greiner #781075). Data was normalized to a standard curve generated using various ADP concentrations and the corresponding luminescent signal intensities at each concentration. The assay conditions were optimized for enzyme concentration (WRN), substrate concentrations (ATP & dsDNA), and the linearity of the ATPase reaction, in the following assay buffer: 50 mM Tris-HCl, pH-7.5, 2 mM MgCl2, 50 mM NaCl, 1 mM EGTA, 0.01% P-20, 0.05% BSA, and 2 mM DTT prepared with nuclease free water.
A serial dilution (1:3 scheme) of the compounds were prepared in neat DMSO, with 100 nL of the compounds dispensed in the 384 wells assay plate. An 1-hr pre-incubation of the compounds with enzyme was included. A His-tagged construct of WRN (AA S2-S1235) was produced and used for the ATPase assay. Maximum inhibition control wells were set up with the addition of only assay buffer, and no inhibition control wells were set up with neat DMSO without test compounds. The reaction was initiated by addition of 5 μL substrate mix (200 μM ultrapure ATP, and 50 nM dsDNA prepared in assay buffer) and incubated at 25° C. for 35 min. A forked dsDNA oligomer substrate was prepared by annealing equal amounts of oligo GPat-1 ([BHQ2][…]) and oligo GPat-2 ([…][TAM]) and was used as dsDNA substrate for WRN ATPase assay. A typical ATPase reaction consists of 25 nM forked dsDNA, 100 μM ATP, and 1 nM WRN prepared in assay buffer. The WRN ATPase reaction was stopped by the addition of 5 μL of ADP-Glo Reagent from ADP-Glo™ Kinase Assay kit and incubated for 40 min to deplete the unreacted ATP. Afterwards, 5 μL of Kinase Detection Reagent from the ADP-Glo™ Kinase Assay kit was added and incubated for 1 hr for the development of luminescence signal.
Luminesce signals were measured on BMG PHERAstar FSX using luminescence protocol. Data analysis was carried out using Genedata software following % of control normalization. Fitting parameters include dose response IC50, Hill slope (n), maximum inhibition (S∞), and minimum inhibition (S0). The reported IC50 values for compounds in this invention are the geometric means of at least 2 independent replicates.

WRN [2] = molecular target: T1, WRN; test: WRN Helicase activity assay (fluorescence DNA unwinding); assay type: biochemical; details: 1-hr pre-incubation with enzyme; 100 μM ATP, 25 nM forked dsDNA, 1 nM WRN; geometric mean of at least 2 replicates
Protocol: Compounds of the examples were tested for WRN helicase activity. DNA encoding the target protein, 6×HIS-TEV-WRN-517-945, was produced, cloned and transfected as detailed in Example D. To determine the inhibitory properties of the compounds, a 384 wells plate-based Helicase assay was set up to measure the extent of DNA unwinding (Helicase) activity of WRN. The WRN Helicase assay was designed to measure increase in fluorescence signal using a fluorescence based, donor-quencher paired forked dsDNA oligomer substrate (custom synthesis from Sigma-Aldrich) prepared by annealing equal amounts of oligo GPat-1 ([BHQ2][…]) and oligo GPat-2 ([…][TAM]). Continuous measurement of fluorescent signal was used to optimize the buffer conditions, concentration of enzyme (WRN), concentration of substrates (ATP & dsDNA), and the linearity of the Helicase reaction. All solutions were prepared in the following assay buffer: 50 mM Tris-HCl, pH-7.5, 2 mM MgCl2, 50 mM NaCl, 1 mM EGTA, 0.01% P-20, 0.05% BSA, and 2 mM DTT prepared with nuclease free water.
A serial dilution (1:3 scheme) of the compounds was prepared in neat DMSO and 100 nL of the compounds was dispensed in the Greiner black low volume (Greiner #784076) 384 wells assay plate. An 1-hr pre-incubation of the compounds with enzyme was included. A His-tagged construct of WRN (AA S2-S1235) was produced and used for the ATPase assay. Maximum inhibition control wells were set up with the addition of only assay buffer, and no inhibition control wells were set up with neat DMSO without test compounds. The reaction was initiated by addition of 5 μL substrate mix (200 μM ultrapure ATP, and 50 nM dsDNA prepared in assay buffer) and incubated at 25° C. for 35 min. A typical Helicase reaction consists of 25 nM forked dsDNA, 100 μM ATP, and 1 nM WRN prepared in assay buffer. The WRN Helicase reaction was quenched by the addition of 5 μL ‘STOP’ solution containing 100 mM EDTA (final EDTA concentration 33.33 mM) prepared in assay buffer. The plates were read on BMG PHERAstar FSX using 540/590 module to measure an increase of fluorescence. Data analysis was carried out using the Genedata software following % of control normalization. Fitting parameters include dose response IC50, Hill slope (n), maximum inhibition (S∞), and minimum inhibition (S0). The reported IC50 values for compounds in this invention are the geometric means of at least 2 independent replicates.

T1 sequence (Q14191 2-1235): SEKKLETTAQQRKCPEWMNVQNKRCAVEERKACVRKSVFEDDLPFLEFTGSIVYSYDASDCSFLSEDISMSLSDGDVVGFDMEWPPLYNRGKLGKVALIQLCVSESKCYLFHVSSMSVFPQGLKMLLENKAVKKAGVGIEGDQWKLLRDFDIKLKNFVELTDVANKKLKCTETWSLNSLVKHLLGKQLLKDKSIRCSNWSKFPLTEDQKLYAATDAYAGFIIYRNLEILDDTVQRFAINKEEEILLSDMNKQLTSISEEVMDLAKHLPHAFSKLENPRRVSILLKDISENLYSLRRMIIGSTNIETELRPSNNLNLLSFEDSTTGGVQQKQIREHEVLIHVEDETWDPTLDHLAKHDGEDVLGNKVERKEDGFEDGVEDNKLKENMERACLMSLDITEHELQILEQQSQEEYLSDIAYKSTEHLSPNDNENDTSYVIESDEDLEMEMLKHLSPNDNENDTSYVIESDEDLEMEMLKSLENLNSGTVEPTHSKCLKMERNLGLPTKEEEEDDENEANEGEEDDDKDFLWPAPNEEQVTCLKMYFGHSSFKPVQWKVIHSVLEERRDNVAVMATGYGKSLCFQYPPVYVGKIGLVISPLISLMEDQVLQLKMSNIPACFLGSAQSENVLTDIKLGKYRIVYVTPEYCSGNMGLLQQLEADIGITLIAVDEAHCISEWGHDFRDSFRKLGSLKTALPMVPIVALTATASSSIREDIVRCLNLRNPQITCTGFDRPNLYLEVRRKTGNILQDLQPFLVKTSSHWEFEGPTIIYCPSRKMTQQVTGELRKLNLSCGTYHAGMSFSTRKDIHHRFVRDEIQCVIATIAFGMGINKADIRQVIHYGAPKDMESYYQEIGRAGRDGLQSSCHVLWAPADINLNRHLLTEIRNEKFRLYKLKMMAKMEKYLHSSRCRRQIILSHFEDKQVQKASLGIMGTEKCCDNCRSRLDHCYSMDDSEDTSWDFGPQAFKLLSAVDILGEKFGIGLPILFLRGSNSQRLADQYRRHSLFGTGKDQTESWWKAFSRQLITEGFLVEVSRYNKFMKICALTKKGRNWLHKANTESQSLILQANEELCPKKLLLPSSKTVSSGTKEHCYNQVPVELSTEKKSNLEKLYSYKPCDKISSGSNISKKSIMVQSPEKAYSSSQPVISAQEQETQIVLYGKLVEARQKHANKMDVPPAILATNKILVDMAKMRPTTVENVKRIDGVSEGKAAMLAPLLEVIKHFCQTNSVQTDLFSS

C=CC(=O)Nc1ccccc1-c1c(CC)nc2n(CC(=O)Nc3ccc(F)cc3Cl)c3ccccc3n2c1=O [Example 6, N-(2-(10-(2-((2-Chloro-4-fluorophenyl)amino)-2-oxoethyl)-2-ethyl-4-oxo-4,10-dihydrobenzo[4,5]imidazo[1,2-a]pyrimidin-3-yl)phenyl)acrylamide]
IC50 (WRN [1]): < 100 nM | IC50 (WRN [2]): < 100 nM

C=CC(=O)Nc1cc(C#N)ccc1-c1c(CC)nc2n(CC(=O)Nc3ccc(C(F)(F)F)cc3)c3ccccc3n2c1=O [Example 15, N-(5-Cyano-2-(2-ethyl-4-oxo-10-(2-oxo-2-((4-(trifluoromethyl)phenyl)amino)ethyl)-4,10-dihydrobenzo[4,5]imidazo[1,2-a]pyrimidin-3-yl)phenyl)acrylamide]
IC50 (WRN [1]): < 100 nM | IC50 (WRN [2]): < 100 nM

C=CC(=O)Nc1ccccc1-c1c(CC)nc2n(CC(=O)Nc3ccc(C(F)(F)F)cc3Cl)c3ccccc3n2c1=O [Example 4, N-(2-(10-(2-((2-Chloro-4-(trifluoromethyl)phenyl)amino)-2-oxoethyl)-2-ethyl-4-oxo-4,10-dihydrobenzo[4,5]imidazo[1,2-a]pyrimidin-3-yl)phenyl)acrylamide]
IC50 (WRN [1]): < 100 nM | IC50 (WRN [2]): < 100 nM

C=CC(=O)Nc1ccccc1-c1c(CC)nc2n(CC(=O)Nc3ccc(C(F)(F)F)cc3)c3ncccc3n2c1=O [Example 20, N-(2-(8-Ethyl-6-oxo-10-(2-oxo-2-((4-(trifluoromethyl)phenyl)amino)ethyl)-6,10-dihydropyrido[2′,3′: 4,5]imidazo[1,2-a]pyrimidin-7-yl)phenyl)acrylamide]
IC50 (WRN [1]): 100 to 500 nM | IC50 (WRN [2]): 100 to 500 nM

C=CC(=O)Nc1ccccc1-c1c(CC)nc2n(CC(=O)NC3CCCCC3)c3ccccc3n2c1=O [Example 10, N-(2-(10-(2-(Cyclohexylamino)-2-oxoethyl)-2-ethyl-4-oxo-4,10-dihydrobenzo[4,5]imidazo[1,2-a]pyrimidin-3-yl)phenyl)acrylamide]
IC50 (WRN [1]): 1000 to 5000 nM | IC50 (WRN [2]): 1000 to 5000 nM

C=CC(=O)Nc1ccc(C(=O)NCCOC)cc1-c1c(CC)nc2n(CC(=O)Nc3ccc(F)cc3)c3ccccc3n2c1=O [Example 13, 4-Acrylamido-3-(2-ethyl-10-(2-((4-fluorophenyl)amino)-2-oxoethyl)-4-oxo-4,10-dihydrobenzo[4,5]imidazo[1,2-a]pyrimidin-3-yl)-N-(2-methoxyethyl) benzamide]
IC50 (WRN [1]): 100 to 500 nM | IC50 (WRN [2]): 100 to 500 nM

C=CC(=O)Nc1ccc(C(=O)OC)cc1-c1c(CC)nc2n(CC(=O)Nc3ccc(F)cc3)c3ccccc3n2c1=O [Example 11, Methyl 4-acrylamido-3-(2-ethyl-10-(2-((4-fluorophenyl)amino)-2-oxoethyl)-4-oxo-4,10-dihydrobenzo[4,5]imidazo[1,2-a]pyrimidin-3-yl)benzoate]
IC50 (WRN [1]): < 100 nM | IC50 (WRN [2]): < 100 nM

C=CC(=O)Nc1ccccc1-c1c(CC)nc2n(CC(=O)Nc3ccc(F)c(F)c3)c3cc(OC)ccc3n2c1=O [Example 17, N-(2-(10-(2-((3,4-Difluorophenyl)amino)-2-oxoethyl)-2-ethyl-8-methoxy-4-oxo-4,10-dihydrobenzo[4,5]imidazo[1,2-a]pyrimidin-3-yl)phenyl)acrylamide]
IC50 (WRN [1]): 100 to 500 nM | IC50 (WRN [2]): 100 to 500 nM

C=CS(=O)(=O)Nc1ccccc1-c1c(CC)nc2n(CC(=O)Nc3ccc(C(F)(F)F)cc3)c3ccccc3n2c1=O [Example 21, 2-(2-Ethyl-4-oxo-3-(2-(vinylsulfonamido)phenyl)benzo[4,5]imidazo[1,2-a]pyrimidin-10(4H)-yl)-N-(4-(trifluoromethyl)phenyl)acetamide]
IC50 (WRN [1]): < 100 nM | IC50 (WRN [2]): < 100 nM

C=CS(=O)(=O)Nc1ccccc1-c1c(CC)nc2n(CC(=O)Nc3ccc(C(F)(F)F)cc3)c3c(n2c1=O)CCCC3 [Example 23, 2-(2-Ethyl-4-oxo-3-(2-(vinylsulfonamido)phenyl)-6,7,8,9-tetrahydrobenzo[4,5]imidazo[1,2-a]pyrimidin-10(4H)-yl)-N-(4-(trifluoromethyl)phenyl)acetamide]
IC50 (WRN [1]): < 100 nM | IC50 (WRN [2]): < 100 nM

C=CC(=O)Nc1ccccc1-c1c(CC)nc2n(CC(=O)Nc3cccc(C(F)(F)F)c3)c3ccccc3n2c1=O [Example 7, N-(2-(2-Ethyl-4-oxo-10-(2-oxo-2-((3-(trifluoromethyl)phenyl)amino)ethyl)-4,10-dihydrobenzo[4,5]imidazo[1,2-a]pyrimidin-3-yl)phenyl)acrylamide]
IC50 (WRN [1]): 100 to 500 nM | IC50 (WRN [2]): 100 to 500 nM

C=CC(=O)Nc1ccccc1-c1c(CC)nc2n(CC(=O)Nc3ccc(C(F)(F)F)cc3)c3ccccc3n2c1=O [Example 3, N-(2-(2-Ethyl-4-oxo-10-(2-oxo-2-((4-(trifluoromethyl)phenyl)amino)ethyl)-4,10-dihydrobenzo[4,5]imidazo[1,2-a]pyrimidin-3-yl)phenyl)acrylamide]
IC50 (WRN [1]): < 100 nM | IC50 (WRN [2]): < 100 nM

C=CC(=O)Nc1ccccc1-c1c(CC)c(C#N)c2n(CC(=O)Nc3ccc(C(F)(F)F)cc3)c3ccccc3n2c1=O [Example 25, N-(2-(4-Cyano-3-ethyl-1-oxo-5-(2-oxo-2-((4-(trifluoromethyl)phenyl)amino)ethyl)-1,5-dihydrobenzo[4,5]imidazo[1,2-a]pyridin-2-yl)phenyl)acrylamide]
IC50 (WRN [1]): 100 to 500 nM | IC50 (WRN [2]): 100 to 500 nM

C=CC(=O)Nc1ccccc1-c1c(CC)nc2n(CC(=O)Nc3ccc(F)cc3)c3cc(C)c(C)cc3n2c1=O [Example 18, N-(2-(2-Ethyl-10-(2-((4-fluorophenyl)amino)-2-oxoethyl)-7,8-dimethyl-4-oxo-4,10-dihydrobenzo[4,5]imidazo[1,2-a]pyrimidin-3-yl)phenyl)acrylamide]
IC50 (WRN [1]): 1000 to 5000 nM | IC50 (WRN [2]): 5000 to 20000 nM

C=CC(=O)Nc1ccccc1-c1c(CC)nc2n(CC(=O)Nc3ccc(C(F)(F)F)cc3)c3c(OC)cccc3n2c1=O [Example 19, N-(2-(2-Ethyl-9-methoxy-4-oxo-10-(2-oxo-2-((4-(trifluoromethyl)phenyl)amino)ethyl)-4,10-dihydrobenzo[4,5]imidazo[1,2-a]pyrimidin-3-yl)phenyl)acrylamide]
IC50 (WRN [1]): < 100 nM | IC50 (WRN [2]): < 100 nM

C=CS(=O)(=O)Nc1ccccc1-c1c(CC)c(C#N)c2n(CC(=O)Nc3ccc(C(F)(F)F)cc3)c3ccccc3n2c1=O [Example 24, 2-(4-Cyano-3-ethyl-1-oxo-2-(2-(vinylsulfonamido)phenyl)benzo[4,5]imidazo[1,2-a]pyridin-5(1H)-yl)-N-(4-(trifluoromethyl)phenyl)acetamide]
IC50 (WRN [1]): 100 to 500 nM | IC50 (WRN [2]): 100 to 500 nM
